{
  "source": "paper PMC8930249",
  "about": "“Elucidating the Novel Mechanism of Ligustrazine in Preventing Postoperative Peritoneal Adhesion Formation” (Oxidative Medicine and Cellular Longevity, 2022)",
  "molecular_target": "T1, PPARγ (Homo sapiens, UniProt P37231)",
  "T1 construct": "gene PPARG; recombinant His-tagged PPARγ (pET10), wild type",
  "T1 sequence (P37231 1-505)": "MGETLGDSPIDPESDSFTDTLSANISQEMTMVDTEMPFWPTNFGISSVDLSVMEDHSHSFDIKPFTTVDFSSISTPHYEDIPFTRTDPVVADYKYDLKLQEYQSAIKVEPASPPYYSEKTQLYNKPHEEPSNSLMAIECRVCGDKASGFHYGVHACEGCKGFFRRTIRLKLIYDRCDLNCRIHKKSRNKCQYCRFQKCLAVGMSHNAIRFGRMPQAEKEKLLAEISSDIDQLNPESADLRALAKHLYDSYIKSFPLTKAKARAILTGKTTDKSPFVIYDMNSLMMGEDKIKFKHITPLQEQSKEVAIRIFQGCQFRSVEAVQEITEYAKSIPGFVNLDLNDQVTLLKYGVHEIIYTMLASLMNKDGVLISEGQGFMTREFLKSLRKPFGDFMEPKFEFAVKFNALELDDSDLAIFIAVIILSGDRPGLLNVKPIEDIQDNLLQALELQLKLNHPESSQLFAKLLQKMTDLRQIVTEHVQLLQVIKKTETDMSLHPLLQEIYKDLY",
  "assay": "biolayer interferometry (Octet RED […]), Ni-NTA immobilised His-tagged protein",
  "assay_type": "binding",
  "data": [
    {"smiles": "Cc1nc(C)c(C)nc1C", "note": "[Ligustrazine]", "values": [
      {"measurement": "Kd", "value": 39.4, "unit": "µM"}
    ]}
  ]
}
